Patent US20220281821A1, “INDAZOLE COMPOUNDS AND THEIR PHARMACEUTICAL COMPOSITIONS” (Jinan University, priority 2019, published 2022)

Legend:
BaF3-ETV6-NTRK2 = target: T1, BaF3-ETV6-NTRK2 (Homo sapiens, UniProt Q16620); assay: Cell proliferation inhibition (CCK-8), BaF3-ETV6-NTRK2 stable strain; assay type: cell-based, mouse; settings: BaF3-ETV6-NTRK2, 72 hours
T1 construct: fused on or other part: P41212 (Transcription factor ETV6)
How it was run: (§1)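 Ba/F3 cells stably electroporated with ETV6-NTRK3, CD74-NTRK1 or ETV6-NTRK2, selected with G418 and grown without IL3, then cloned by limiting dilution.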

BaF3-CD74-NTRK1 = target: T2, BaF3-CD74-NTRK1 (Homo sapiens, UniProt P04629); assay: Cell proliferation inhibition (CCK-8), BaF3-CD74-NTRK1 stable strain; assay type: cell-based, mouse; settings: BaF3-CD74-NTRK1, 72 hours
T2 construct: fused on or other part: P04233 (HLA class II histocompatibility antigen gamma chain)
T2 sequence (P04629 510-796 limits assumed): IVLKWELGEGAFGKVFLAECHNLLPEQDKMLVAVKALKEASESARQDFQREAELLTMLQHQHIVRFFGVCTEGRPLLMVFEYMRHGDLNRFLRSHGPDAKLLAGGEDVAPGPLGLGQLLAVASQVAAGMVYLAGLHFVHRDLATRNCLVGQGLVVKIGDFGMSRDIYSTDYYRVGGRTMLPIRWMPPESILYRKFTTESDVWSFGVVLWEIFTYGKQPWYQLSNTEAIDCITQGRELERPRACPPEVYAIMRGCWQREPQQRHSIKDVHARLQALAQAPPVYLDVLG
How it was run: as §1

TRKB = target: T3, TRKB (Homo sapiens, UniProt Q16620); assay: Z′-LYTE kinase activity assay, TRKB; assay type: biochemical; settings: ATP 25 uM
T3 construct: purchased life technologies PV3616
T3 sequence (Q16620 32-822): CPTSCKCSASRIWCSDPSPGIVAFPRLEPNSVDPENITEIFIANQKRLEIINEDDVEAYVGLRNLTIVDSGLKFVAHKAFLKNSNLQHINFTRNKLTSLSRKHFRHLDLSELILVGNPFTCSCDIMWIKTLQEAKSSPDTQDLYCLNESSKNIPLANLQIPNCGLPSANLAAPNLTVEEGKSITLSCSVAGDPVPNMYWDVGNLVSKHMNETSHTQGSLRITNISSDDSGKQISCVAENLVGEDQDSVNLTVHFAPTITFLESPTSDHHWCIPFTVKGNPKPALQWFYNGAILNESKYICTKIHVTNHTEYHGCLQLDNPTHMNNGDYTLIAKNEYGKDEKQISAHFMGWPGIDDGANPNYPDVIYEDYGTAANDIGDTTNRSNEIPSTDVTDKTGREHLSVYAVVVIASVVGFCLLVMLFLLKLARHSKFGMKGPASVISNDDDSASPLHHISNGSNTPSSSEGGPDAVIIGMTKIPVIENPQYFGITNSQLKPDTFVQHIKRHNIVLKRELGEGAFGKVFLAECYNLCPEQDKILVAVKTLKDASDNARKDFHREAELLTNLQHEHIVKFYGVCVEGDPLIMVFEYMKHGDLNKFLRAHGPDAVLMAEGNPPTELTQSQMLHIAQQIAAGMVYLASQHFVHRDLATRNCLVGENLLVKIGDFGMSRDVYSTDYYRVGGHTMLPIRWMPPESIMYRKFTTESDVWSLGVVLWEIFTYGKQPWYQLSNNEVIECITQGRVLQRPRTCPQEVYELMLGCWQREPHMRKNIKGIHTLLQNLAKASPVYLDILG
From the text: (§2) Kinase activity assay: Z′-LYTE™ technology (detection by fluorescence, enzyme-conjugated format, based on the difference in sensitivity of phosphorylated and non-phosphorylated peptides to proteolytic cleavage) was applied, and using the principle of fluorescence resonance energy transfer (FRET), a Z′-LYTE™ FRET peptide substrate (Z′-LYTE™ Tyrosine 1 Peptide Substrate, Invitrogen, PV3190), and a secondary reaction were used to detect the inhibitory activity of the compounds on TRKs (TRK1, TRK2, TRK3) (life technologies, PV3144, PV3616, PV3617).
(§3) Enzymatic reaction: In a 384-well plate, 5 μL of an enzyme-substrate system (50 mM HEPES pH 7.5, 0.01% BRIJ-35, 10 mM MgCl2, 1 mM EGTA, 2 μM Tyr 01 Peptide Substrate) was added and 5 nL of compound (concentration gradient) was transferred thereto by using the echo520 ultramicro liquid pipetting system. […] After shaking and mixing, centrifuging was performed. A reaction was carried out at 30° C. in the dark for 1.5 hours.
(§4) The data were analyzed as follows:
(§5) Phosphorylation ratio=1−{(emission ratio×F100%−C100%)/[C0%−C100%+emission ratio×(F100%−F0%)]}×100;
(§6) Inhibition rate=100×(1−compound phosphorylation ratio/negative control phosphorylation ratio).
(§7) IC50 values were calculated by using GraphPad Prism 5.0 software.

BaF3-ETV6-NTRK3 = target: T4, BaF3-ETV6-NTRK3 (Homo sapiens, UniProt Q16288); assay: Cell proliferation inhibition (CCK-8), BaF3-ETV6-NTRK3 stable strain; assay type: cell-based, mouse; settings: BaF3-ETV6-NTRK3, 72 hours
T4 construct: fused on or other part: P41212 (Transcription factor ETV6)
T4 sequence (Q16288 whole entry, the tested form may be a part): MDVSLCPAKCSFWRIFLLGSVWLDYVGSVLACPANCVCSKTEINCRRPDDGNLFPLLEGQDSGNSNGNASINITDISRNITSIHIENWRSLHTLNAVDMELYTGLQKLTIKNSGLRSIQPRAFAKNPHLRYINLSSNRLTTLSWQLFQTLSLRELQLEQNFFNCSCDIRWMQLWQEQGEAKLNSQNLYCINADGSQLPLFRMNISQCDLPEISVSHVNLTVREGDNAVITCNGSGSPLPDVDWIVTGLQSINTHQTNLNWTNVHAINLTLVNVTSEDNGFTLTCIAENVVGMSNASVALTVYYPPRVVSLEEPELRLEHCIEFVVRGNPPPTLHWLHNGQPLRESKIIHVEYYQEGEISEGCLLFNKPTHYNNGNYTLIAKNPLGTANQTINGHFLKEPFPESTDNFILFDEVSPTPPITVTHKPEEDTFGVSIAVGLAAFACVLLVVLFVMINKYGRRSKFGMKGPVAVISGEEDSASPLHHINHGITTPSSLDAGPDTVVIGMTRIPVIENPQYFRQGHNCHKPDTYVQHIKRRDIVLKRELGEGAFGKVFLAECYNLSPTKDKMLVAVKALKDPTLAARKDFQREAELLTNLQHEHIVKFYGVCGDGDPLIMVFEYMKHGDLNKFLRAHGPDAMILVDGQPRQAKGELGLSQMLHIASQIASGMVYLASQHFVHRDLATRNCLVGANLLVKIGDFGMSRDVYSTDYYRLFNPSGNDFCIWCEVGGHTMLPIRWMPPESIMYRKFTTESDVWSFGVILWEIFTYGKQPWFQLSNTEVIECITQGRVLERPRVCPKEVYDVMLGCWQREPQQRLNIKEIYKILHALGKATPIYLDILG
How it was run: as §1

TRKA = target: T5, TRKA (Homo sapiens, UniProt P04629); assay: Z′-LYTE kinase activity assay, TRKA; assay type: biochemical; settings: ATP 400 uM
T5 construct: purchased life technologies PV3144
T5 sequence (P04629 440-796 limits assumed): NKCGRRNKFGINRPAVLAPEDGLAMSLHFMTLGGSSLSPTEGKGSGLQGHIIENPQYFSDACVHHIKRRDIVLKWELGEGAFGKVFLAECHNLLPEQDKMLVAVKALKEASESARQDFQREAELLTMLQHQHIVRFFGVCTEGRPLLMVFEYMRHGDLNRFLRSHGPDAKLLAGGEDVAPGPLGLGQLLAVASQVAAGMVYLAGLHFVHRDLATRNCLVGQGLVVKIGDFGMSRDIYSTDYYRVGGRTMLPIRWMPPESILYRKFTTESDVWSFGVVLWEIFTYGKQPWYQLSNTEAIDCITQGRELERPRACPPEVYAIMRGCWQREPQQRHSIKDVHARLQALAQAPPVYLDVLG
From the text: as §2, §3, §4, §5, §6, §7

TRKC = target: T6, TRKC (Homo sapiens, UniProt Q16288); assay: Z′-LYTE kinase activity assay, TRKC; assay type: biochemical; settings: ATP 50 uM
T6 construct: purchased life technologies PV3617
T6 sequence (Q16288 32-839): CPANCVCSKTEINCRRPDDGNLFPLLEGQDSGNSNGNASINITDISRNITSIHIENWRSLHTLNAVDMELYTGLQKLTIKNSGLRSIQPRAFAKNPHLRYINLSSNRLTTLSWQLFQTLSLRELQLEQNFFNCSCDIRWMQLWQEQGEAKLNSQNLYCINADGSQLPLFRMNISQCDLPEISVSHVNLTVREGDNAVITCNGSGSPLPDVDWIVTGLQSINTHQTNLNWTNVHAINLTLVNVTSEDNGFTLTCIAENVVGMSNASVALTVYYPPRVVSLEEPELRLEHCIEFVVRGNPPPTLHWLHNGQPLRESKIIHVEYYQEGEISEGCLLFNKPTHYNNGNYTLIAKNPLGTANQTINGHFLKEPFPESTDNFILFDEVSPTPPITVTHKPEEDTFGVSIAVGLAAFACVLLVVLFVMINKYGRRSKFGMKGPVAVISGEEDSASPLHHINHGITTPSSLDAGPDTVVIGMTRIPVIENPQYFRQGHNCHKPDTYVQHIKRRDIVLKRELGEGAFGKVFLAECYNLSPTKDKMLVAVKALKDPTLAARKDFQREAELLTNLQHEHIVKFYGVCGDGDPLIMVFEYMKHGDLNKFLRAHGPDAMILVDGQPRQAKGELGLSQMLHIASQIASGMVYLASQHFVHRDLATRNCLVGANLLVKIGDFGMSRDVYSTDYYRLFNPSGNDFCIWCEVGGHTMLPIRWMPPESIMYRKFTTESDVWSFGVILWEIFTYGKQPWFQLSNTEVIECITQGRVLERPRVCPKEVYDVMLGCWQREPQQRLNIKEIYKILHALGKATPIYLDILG
From the text: as §2, §3, §4, §7

T1 sequence (Q16620 538-822 limits assumed): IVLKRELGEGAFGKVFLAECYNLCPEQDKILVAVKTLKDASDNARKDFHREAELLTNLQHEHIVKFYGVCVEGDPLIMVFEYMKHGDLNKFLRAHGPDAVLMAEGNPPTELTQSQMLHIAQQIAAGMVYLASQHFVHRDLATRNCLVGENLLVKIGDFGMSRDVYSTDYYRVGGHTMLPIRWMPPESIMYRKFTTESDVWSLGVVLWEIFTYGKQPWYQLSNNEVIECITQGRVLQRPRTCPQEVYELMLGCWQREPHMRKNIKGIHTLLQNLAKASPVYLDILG

Compound	IC50 (BaF3-ETV6-NTRK2)	IC50 (BaF3-CD74-NTRK1)	IC50 (TRKB)	IC50 (BaF3-ETV6-NTRK3)	IC50 (TRKA)	IC50 (TRKC)
Fc1cc(F)cc(Cc2ccc3[nH]nc(C#Cc4ccccn4)c3c2)c1 [CCB-484, 5-(3,5-difluorobenzyl)-3-(pyridin-2-ylethynyl)-1H-indazole]	1970 nM	820 nM	83.8 nM	477 nM	34 nM	11.8 nM
O=C(Nc1cc(F)cc(F)c1)Nc1ccc2[nH]nc(/C=C/c3ccccn3)c2c1 [DYX-174, (E)-1-(3,5-difluorophenyl)-3-(3-(2-(pyridin-2-yl)vinyl)-1H-indazol-5-yl)urea]	1910 nM	1180 nM	242 nM	623 nM	46.8 nM	94.1 nM
C[C@@H](Nc1ccc2[nH]nc(/C=C/C(=O)N3CC[C@H](O)C3)c2c1)c1cc(F)cc(F)c1 [DYX-303, (E)-3-(5-(((R)-1-(3,5-difluorophenyl)ethyl)amino)-1H-indazol-3-yl)-1-((S)-3-hydroxylpyrrolidin-1-yl)prop-2-en-1-one]	20 nM	10.1 nM	4.8 nM	7.1 nM	3 nM	0.8 nM
Fc1cccc(F)c1Cc1ccc2[nH]nc(C#Cc3ccccn3)c2c1 [DYX-071, 5-(2,6-difluorobenzyl)-3-(pyridin-2-ylethynyl)-1H-indazole]	2890 nM	7730 nM	385 nM	2740 nM	217 nM	113 nM
Fc1ccc(Cc2ccc3[nH]nc(/C=C/c4ccccn4)c3c2)cc1F [DYX-059, (E)-5-(3,4-difluorobenzyl)-3-(2-(pyridin-2-yl)vinyl)-1H-indazole]	8820 nM	7940 nM	> 1000 nM	3250 nM	250 nM	160 nM
Fc1ccccc1Cc1ccc2[nH]nc(/C=C/c3ccccn3)c2c1 [DYX-032, (E)-5-(2-fluorobenzyl)-3-(2-(pyridin-2-yl)vinyl)-1H-indazole]	2340 nM	1920 nM	56.1 nM	718 nM	14.5 nM	12 nM
C(#Cc1n[nH]c2ccc(Cc3ccccc3)cc12)c1ccccn1 [DYX-014, 5-benzyl-3-(pyridin-2-ylethynyl)-1H-indazole]	4700 nM	8310 nM	321 nM	3030 nM	100 nM	95 nM
Fc1cc(F)cc(Cc2ccc3[nH]nc(/C=C/c4cccnc4)c3c2)c1 [DYX-03, (E)-5-(3,5-difluorobenzyl)-3-(2-(pyridin-3-yl)vinyl)-1H-indazole]	157 nM	126 nM	10.9 nM	75.2 nM	4 nM	8.6 nM
CN(c1cc(F)cc(F)c1)c1ccc2[nH]nc(C#Cc3ccccn3)c2c1 [DYX-130, N-(3,5-difluorophenyl)-N-methyl-3-(pyridin-2-ylethynyl)-1H-indazol-5-amine]	9840 nM	3810 nM	993 nM	3090 nM	319 nM	235 nM
Fc1cccc(Cc2ccc3[nH]nc(/C=C/c4ccccn4)c3c2)c1 [DYX-038, (E)-5-(3-fluorobenzyl)-3-(2-(pyridin-2-yl)vinyl)-1H-indazole]	335 nM	239 nM	32.4 nM	133 nM	9.3 nM	1.9 nM
Fc1cc(F)cc(Cc2ccc3[nH]nc(/C=C/c4ccncc4)c3c2)c1 [DYX-215, (E)-5-(3,5-difluorobenzyl)-3-(2-(pyridin-4-yl)vinyl)-1H-indazole]	170 nM	147 nM	22.4 nM	110 nM	3.3 nM	20.9 nM
Fc1cc(F)cc(Sc2ccc3[nH]nc(/C=C/c4ccccn4)c3c2)c1 [DYX-090, (E)-5-((3,5-difluorophenyl)thio)-3-(2-(pyridin-2-yl)vinyl)-1H-indazole]	295 nM	480 nM	79.9 nM	158 nM	9.9 nM	35.7 nM
Fc1cc(F)cc(Cc2ccc3[nH]nc(/C=C/c4ccccn4)c3c2)c1 [CCB-489, (E)-5-(3,5-difluorobenzyl)-3-(2-(pyridin-2-yl)vinyl)-1H-indazole]	165 nM	146 nM	14.4 nM	56.2 nM	4.6 nM	2.7 nM
O=C(Nc1ccc2[nH]nc(/C=C/c3ccccn3)c2c1)c1cc(F)cc(F)c1 [DYX-164, (E)-3,5-difluoro-N-(3-(2-(pyridin-2-yl)vinyl)-1H-indazol-5-yl)benzamide]	2580 nM	1930 nM	741 nM	2240 nM	196 nM	226 nM
Fc1cc(F)cc(Cc2ccc3[nH]nc(/C=C/c4cccs4)c3c2)c1 [DYX-04, (E)-5-(3,5-difluorobenzyl)-3-(2-(thiophen-2-yl)vinyl)-1H-indazole]	728 nM	174 nM	32.4 nM	240 nM	21.8 nM	5.1 nM
CN(Cc1cc(F)cc(F)c1)c1ccc2[nH]nc(/C=C/c3ccccn3)c2c1 [DYX-187, (E)-N-(3,5-difluorobenzyl)-N-methyl-3-(2-(pyridin-2-yl)vinyl)-1H-indazol-5-amine]	625 nM	172 nM	20.3 nM	278 nM	18.7 nM	6.2 nM
Fc1ccc(F)c(Cc2ccc3[nH]nc(/C=C/c4ccccn4)c3c2)c1 [DYX-054, (E)-5-(2,5-difluorobenzyl)-3-(2-(pyridin-2-yl)vinyl)-1H-indazole]	329 nM	546 nM	12.2 nM	145 nM	7.1 nM	5.4 nM

Continued by falling IC50 (BaF3-ETV6-NTRK2), values first:

IC50 (BaF3-ETV6-NTRK2)	IC50 (BaF3-CD74-NTRK1)	IC50 (TRKB)	IC50 (BaF3-ETV6-NTRK3)	IC50 (TRKA)	IC50 (TRKC)	Compound
2800 nM	9980 nM	> 1000 nM	3150 nM	> 1000 nM	575 nM	Fc1cc(F)cc(Nc2ccc3[nH]nc(C#Cc4ccccn4)c3c2)c1 [DYX-129, N-(3,5-difluorophenyl)-3-(pyridin-2-ylethynyl)-1H-indazol-5-amine]
2730 nM	8040 nM	> 1000 nM	2640 nM	577 nM	532 nM	O=C(Nc1cc(F)cc(F)c1)c1ccc2[nH]nc(/C=C/c3ccccn3)c2c1 [DYX-171, (E)-N-(3,5-difluorophenyl)-3-(2-(pyridin-2-yl)vinyl)-1H-indazole-5-carboxamide]
2600 nM	3600 nM	241 nM	3710 nM	54.2 nM	111 nM	Fc1cc(F)cc(Sc2ccc3[nH]nc(C#Cc4ccccn4)c3c2)c1 [DYX-086, 5-((3,5-difluorophenyl)thio)-3-(pyridin-2-ylethynyl)-1H-indazole]
2520 nM	627 nM	21.4 nM	1040 nM	7.1 nM	6.5 nM	Fc1cc(F)cc(OCc2ccc3[nH]nc(/C=C/c4ccccn4)c3c2)c1 [DYX-176]
1880 nM	2360 nM	211 nM	846 nM	70.9 nM	28.3 nM	Clc1cccc(Cc2ccc3[nH]nc(/C=C/c4ccccn4)c3c2)c1 [DYX-134X, (E)-5-(3-chlorobenzyl)-3-(2-(pyridin-2-yl)vinyl)-1H-indazole]
968 nM	211 nM	40.3 nM	284 nM	10.6 nM	104 nM	Fc1cc(F)cc(Cc2ccc3[nH]nc(/C=C/c4ccccc4)c3c2)c1 [DYX-07, (E)-5-(3,5-difluorobenzyl)-3-styryl-1H-indazole]
914 nM	888 nM	43.1 nM	749 nM	8.1 nM	21.4 nM	O=S(=O)(c1cc(F)cc(F)c1)c1ccc2[nH]nc(C#Cc3ccccn3)c2c1 [DYX-108, 5-((3,5-difluorophenyl)sulfonyl)-3-(pyridin-2-ylethynyl)-1H-indazole]
678 nM	580 nM	10.9 nM	419 nM	1.6 nM	6 nM	Fc1cc(F)cc(Cc2ccc3[nH]nc(/C=C/c4cnccn4)c3c2)c1 [DYX-05, (E)-5-(3,5-difluorobenzyl)-3-(2-(pyrazin-2-yl)vinyl)-1H-indazole]
